Assay in all cases: NCI-60 cell line screen, 48 h
In assay [1] the test system is U251 CNS.
Assay [2] relates to SW-620 colon.
In assay [3] the test system is SK-MEL-5 melanoma.
The subject of assay [4] is SK-OV-3 ovarian.
Assay [5] concerns K-562 leukemia.
The subject of assay [6] is COLO 205 colon.
For assay [7], the system named is NCI-H23 lung.
Assay [8] deals with CCRF-CEM leukemia.

The source of these data is PubChem BioAssay (NCI).

Where “and” joins values, the source holds several entries; their conditions need not be identical. Identical values can stand only once.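 1) Cells in 96-well plates. 2) Compound, 48 h, 5 concentrations. 3) Linear interpolation between surrounding doses. 4) Unreached endpoint = highest concentration. Abbreviation: GI50, concentration required for 50% inhibition of growth. TGI: total growth inhibition.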

`Clc1ccc(-c2nn3ncccc3c2-c2ccnc(Nc3ccccc3)n2)cc1`: the GI50 in assay [1] was 14.9 µM; in assay [2] it was 12 µM; in assay [3] it was > 12.4 µM; in assay [4], 6.55 µM; in assay [5], 2.89 µM; in assay [6], > 18.7 µM. Also, the figures for the GI50 in assay [7] and in assay [8] were 10.5 µM and 10.6 µM, respectively. Moreover, the TGI in assay [1], in assay [2], in assay [3], in assay [4], in assay [5] and in assay [6] was > 25 µM in each case. Also, the TGI in assay [7] and in assay [8] was > 25 µM in each case.
Turning to `COc1cccc(C2C3=C(COC3=O)N(CCO)c3cc4c(cc32)OCCO4)c1` (configuration not stated), the GI50 in assay [1] is 0.221 µM; in assay [2], 0.104 µM; in assay [3], 0.0474 µM; in assay [4], 0.128 µM; in assay [5] it was 0.0827 µM; in assay [6], 0.108 µM. In addition, the GI50 was 0.15 µM in assay [7] and 0.151 µM in assay [8]. Also, the TGI in assay [1] is > 50 µM; in assay [2], > 50 µM; in assay [3], 1.23 µM; in assay [4], 4.28 µM; in assay [5] it was > 50 µM; in assay [6], 0.268 µM. Also, the TGI in assay [7] and in assay [8] was > 50 µM each time.
On to `COc1cc([C@@H]2c3cc4c(cc3[C@@H](O[C@@H]3O[C@@H]5CO[C@@H](c6cccs6)O[C@H]5[C@H](O)[C@H]3O)[C@H]3COC(=O)[C@H]23)OCO4)cc(OC)c1O`, for which the GI50 in assay [1] was 0.18 µM; in assay [2], 0.175 µM; in assay [3] it was 0.157 µM; in assay [4], 0.456 µM; in assay [5], 0.411 µM; in assay [6], 1.88 µM. In addition, the results for the GI50 in assay [7] and in assay [8] were 0.179 µM and 0.0704 µM, respectively. In addition, the TGI in assay [1] was 6.96 µM; in assay [2] it was > 46.1 µM; in assay [3], 1.33 µM; in assay [4], 10.2 µM; in assay [5], > 100 µM; in assay [6] it was 8.94 µM. Moreover, the TGI in assay [7] is 2.6 µM; in assay [8], > 100 µM.
As to `N#Cc1c(NC(=O)CN2CCOCC2)sc2c1CCCC2`, the GI50 in assay [1], in assay [2], in assay [3], in assay [4], in assay [5] and in assay [6] was > 25 µM in each case. Besides, the GI50 in assay [7] and in assay [8] was > 25 µM each time. The TGI in assay [1], in assay [2], in assay [3], in assay [4], in assay [5] and in assay [6] was > 25 µM in each case. Also, the TGI in assay [7] and in assay [8] was > 25 µM in each case.
As to `N#Cc1c(-c2ccccc2)cc(-c2ccccc2)n(CCCCC(=O)NO)c1=O`, the GI50 is 2.79 µM in assay [1]; 2.95 µM in assay [2]; 1.84 µM in assay [3]; 2.06 µM in assay [4]; 2.1 µM in assay [5]; 2.74 µM in assay [6]. The values for the GI50 in assay [7] and in assay [8] were 2.4 µM and 1.68 µM, respectively. Besides, the TGI worked out at 11.1 µM in assay [1]; 11.9 µM in assay [2]; 3.59 µM in assay [3]; 5 µM in assay [4]; 12.4 µM in assay [5]; 7.76 µM in assay [6]. Further, the values for the TGI in assay [7] and in assay [8] were 6.94 µM and 6.45 µM, respectively.
On to `Nc1ccccc1NC(=O)c1ccc(CN2CCC/C(=C\c3cccc(Cl)c3)C2=O)cc1`, for which the GI50 in assay [1] was 0.138 µM; in assay [2] it was 0.0539 µM; in assay [3], 0.0836 µM; in assay [4] it was 0.626 µM; in assay [5], 0.0399 µM; in assay [6] it was 0.157 µM. Moreover, the GI50 in assay [7] is 0.342 µM; in assay [8], 0.866 µM. Also, the TGI was 13.2 µM in assay [1]; > 100 µM in assay [2]; 1.08 µM in assay [3]; 26.4 µM in assay [4]; > 100 µM in assay [5]; 24.2 µM in assay [7]. Also, in assay [8], the TGI is > 100 µM.
With `CNc1ccc(-c2cc(=O)oc3ccc(Cl)cc23)cc1`, the GI50 was 0.175 µM and 0.0472 µM in assay [1]; 0.0477 µM and 0.0437 µM in assay [2]; 0.121 µM and 0.0772 µM in assay [3]; 0.218 µM and 0.107 µM in assay [4]; 0.0312 µM and 0.0363 µM in assay [5]; 0.278 µM and 0.201 µM in assay [6]. Further, the GI50 in assay [7] was 0.311 µM and 0.219 µM; in assay [8], 0.146 µM and 0.0494 µM. Besides, the TGI was > 100 µM in assay [1]; > 100 µM in assay [2]; 1.11 µM and 2.56 µM in assay [3]; > 100 µM in assay [4]; > 100 µM in assay [5]; 1.17 µM and 1.27 µM in assay [6]. Also, the TGI in assay [7] and in assay [8] was > 100 µM in each case.
As for `Oc1cc(O)c2c(=S)cc(-c3ccc(Cl)cc3)oc2c1`, the GI50 in assay [1] was 3.24 µM; in assay [2], 3.55 µM; in assay [3], 1.89 µM; in assay [4], 2.77 µM; in assay [5] it was 3.48 µM; in assay [6], 15.3 µM. The values for the GI50 in assay [7] and in assay [8] were 2.06 µM and 4.02 µM, respectively. The TGI in assay [1] turned out to be 11.3 µM; in assay [2], 16.9 µM; in assay [3], 5.04 µM; in assay [4] it was 18.2 µM; in assay [5], 22.3 µM; in assay [6], 33.6 µM. Besides, the results for the TGI in assay [7] and in assay [8] were 8.8 µM and > 63.1 µM, respectively.
For the compound `CCOC(=O)C1=C(C)NC(=O)NC1c1coc2cc(C)cc(C)c2c1=O` (configuration not stated), the TGI in assay [1], in assay [2], in assay [3], in assay [4], in assay [5] and in assay [6] was > 100 µM throughout. Besides, the TGI in assay [7] and in assay [8] was > 100 µM in each case.
With `CCOC(=O)c1c(C)n2c(=O)cc(C)c3c(OC(C)=O)c(OC(C)=O)cc1c32`, the GI50 is 4.76 µM in assay [1]; 4.03 µM in assay [2]; 3.78 µM in assay [3]; 11.8 µM in assay [4]; 3.86 µM in assay [5]; 4.62 µM in assay [6]. The results for the GI50 in assay [7] and in assay [8] were 4.64 µM and 1.44 µM, respectively. Moreover, the TGI in assay [1] is > 57.7 µM; in assay [2] it was 19.3 µM; in assay [3], 13.4 µM; in assay [4], 87.5 µM; in assay [5], > 37.9 µM; in assay [6], 18.7 µM. Moreover, the results for the TGI in assay [7] and in assay [8] were > 34.7 µM and 6.45 µM, respectively.
In the case of `O=C(c1cccs1)c1c(C(F)(F)F)n([O-])c2ccc(F)cc2[n+]1=O`, the GI50 in assay [1] is 1.31 µM; in assay [2] it was 0.523 µM; in assay [3], 1.22 µM; in assay [4], 1.85 µM; in assay [5] it was 0.0904 µM; in assay [6] it was 0.456 µM. Besides, the GI50 in assay [7] is 1.22 µM; in assay [8], 0.662 µM. Moreover, the TGI in assay [1] came to 2.6 µM; in assay [2], 2.32 µM; in assay [3], 2.51 µM; in assay [4] it was 3.59 µM; in assay [5] it was 0.27 µM; in assay [6], 1.62 µM. For the same compound, the TGI was found to be 2.6 µM in assay [7] and 1.98 µM in assay [8].
`CN1c2ccccc2S(=O)(=O)n2c(COc3ccc(Cl)cc3)nnc21`: the TGI in assay [1], in assay [2], in assay [3], in assay [4], in assay [5] and in assay [6] was > 100 µM each time. The TGI in assay [7] and in assay [8] was > 100 µM each time.
Turning to `COC(=O)Nc1nc2cc3c(cc2s1)OCCO3`, the GI50 in assay [1], in assay [2], in assay [3], in assay [4], in assay [5] and in assay [6] was > 50 µM in each case. Besides, the GI50 in assay [7] and in assay [8] was > 50 µM each time. The TGI in assay [1], in assay [2], in assay [3], in assay [4], in assay [5] and in assay [6] was > 50 µM in each case. Also, the TGI in assay [7] and in assay [8] was > 50 µM in each case.
For `CNC(C)C(=O)N[C@H](C(=O)N1CCC[C@@H]1CN(CCc1ccccc1)C(=O)C(F)(F)F)[C@H](C)OCC#CC#CCO[C@H](C)[C@H](NC(=O)[C@H](C)NC)C(=O)N1CCC[C@H]1CN(CCc1ccccc1)C(=O)C(F)(F)F` (some centres not stated), the GI50 was 1.1 µM in assay [1]; 1.63 µM in assay [2]; 1.31 µM in assay [3]; < 0.01 µM in assay [4]; 0.366 µM in assay [5]; 1.42 µM in assay [6]. Further, the figures for the GI50 in assay [7] and in assay [8] were 1.16 µM and 0.602 µM, respectively. The TGI in assay [1] was 2.48 µM; in assay [2] it was 3.16 µM; in assay [3], 2.62 µM; in assay [4], < 0.01 µM; in assay [5], 1.49 µM; in assay [6], 2.99 µM. The TGI in assay [7] stood at 2.68 µM; in assay [8], 2.54 µM.
